Measured values taken from article PMC7026498, “GABAA Receptor β2E155 Residue Located at the Agonist-Binding Site Is Involved in the Receptor Gating” (Frontiers in Cellular Neuroscience, 2020).

What was measured:
[1] = target: T1, GABAA receptor α1β2E155Cγ2L (β2 subunit) (Rattus norvegicus, UniProt P62813+P63138, P63138:E179C); test: whole-cell patch-clamp dose-response (extrapolated Hill fit) and single-channel recording; type: cell-based
T1 construct: gene Gabrb2; recombinant α1β2E155Cγ2L receptor in HEK293 cells; with GABAA receptor α1 and γ2L subunits

[2] = target: T2, GABAA receptor α1β2γ2L (β2 subunit) (Rattus norvegicus, UniProt P62813+P63138); test: whole-cell patch-clamp dose-response; type: cell-based
T2 construct: gene Gabrb2; recombinant α1β2γ2L receptor in HEK293 cells; with GABAA receptor α1 and γ2L subunits
T2 sequence (P63138 26-474): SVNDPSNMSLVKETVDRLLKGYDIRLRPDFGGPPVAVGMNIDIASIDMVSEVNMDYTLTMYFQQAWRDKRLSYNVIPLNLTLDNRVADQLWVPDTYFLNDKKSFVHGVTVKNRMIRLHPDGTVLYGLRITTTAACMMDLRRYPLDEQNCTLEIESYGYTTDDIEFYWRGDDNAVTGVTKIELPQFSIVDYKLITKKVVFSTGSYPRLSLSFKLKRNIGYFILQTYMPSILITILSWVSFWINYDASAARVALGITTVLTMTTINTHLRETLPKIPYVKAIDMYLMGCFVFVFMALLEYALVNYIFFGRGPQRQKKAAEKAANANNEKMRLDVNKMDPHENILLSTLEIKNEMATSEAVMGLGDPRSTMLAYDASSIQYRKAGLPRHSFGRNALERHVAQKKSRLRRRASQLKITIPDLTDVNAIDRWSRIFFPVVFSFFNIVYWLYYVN
T2 sequence (P62813 28-455): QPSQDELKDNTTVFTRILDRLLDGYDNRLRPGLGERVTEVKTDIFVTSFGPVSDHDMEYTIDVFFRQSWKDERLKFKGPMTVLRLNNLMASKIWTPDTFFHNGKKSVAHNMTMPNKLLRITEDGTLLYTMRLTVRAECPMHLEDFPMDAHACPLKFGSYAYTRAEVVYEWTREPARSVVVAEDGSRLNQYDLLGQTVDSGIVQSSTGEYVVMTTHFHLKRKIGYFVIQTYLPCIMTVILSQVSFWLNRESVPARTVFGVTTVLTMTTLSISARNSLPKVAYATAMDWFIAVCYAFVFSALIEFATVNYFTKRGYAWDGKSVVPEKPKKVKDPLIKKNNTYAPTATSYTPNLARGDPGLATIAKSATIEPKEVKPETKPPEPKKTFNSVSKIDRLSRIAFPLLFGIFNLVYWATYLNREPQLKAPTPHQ
T2 sequence (P18508 39-466 partner): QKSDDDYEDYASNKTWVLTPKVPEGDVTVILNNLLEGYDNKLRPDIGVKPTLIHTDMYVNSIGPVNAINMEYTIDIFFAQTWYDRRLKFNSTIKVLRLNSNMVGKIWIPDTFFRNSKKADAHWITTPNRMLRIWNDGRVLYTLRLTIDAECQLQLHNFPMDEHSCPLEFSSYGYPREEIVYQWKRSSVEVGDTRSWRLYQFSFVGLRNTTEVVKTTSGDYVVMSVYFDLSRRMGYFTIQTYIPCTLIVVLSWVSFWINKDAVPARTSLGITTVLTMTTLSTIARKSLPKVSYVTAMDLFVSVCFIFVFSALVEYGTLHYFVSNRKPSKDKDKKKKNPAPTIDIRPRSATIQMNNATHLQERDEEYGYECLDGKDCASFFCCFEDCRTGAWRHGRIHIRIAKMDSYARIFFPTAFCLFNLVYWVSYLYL

T1 sequence (P63138 26-474 E179C): as the sequence (P63138 26-474) above, with E154C counted along it
T1 sequence (P62813 28-455): as the sequence (P62813 28-455) above
T1 sequence (P18508 39-466 partner): as the sequence (P18508 39-466 partner) above

NCc1cc(=O)[nH]o1 [MSC, muscimol]
EC50 [1]: 12.5 mM
EC50 [2]: 0.009 mM
